{"source": "patent US20040138316A1", "about": "(priority 2001, published 2004)", "key": {"parasites": {"system": "parasites", "details": "prior art fumigants; cited from earlier work"}, "man": {"system": "man", "details": "cited from earlier work; for toxicity for man: prior art fumigants"}, "insects": {"system": "insects", "experimental": "(§1) Laboratory tests were carried out preliminarily both in a ventilated environment and a confined environment by means of treatments by contact or inhalation with 100% commercial n-Hexane, for the sake of brevity called hereinafter “Hexane” with reference to the performance of the practical experimental tests whose execution procedures follow."}, "mites": {"system": "mites", "experimental": "as §1"}, "[1]": {"system": "mites, larvae and adult forms of cheese fly", "experimental": "Subsequent tests were conducted in a closed chamber consisting of a box (70 cm×50 cm by 120 cm high) with polypropylene walls as this material is among those not attacked by Hexane such as other synthetic plastic materials among which polyethylene, polyester, polyethylene terephthalates in addition to aluminum, copper, carbon steel and stainless steel. […] On the bottom of this box was located a circular aluminum tank (dia. 22 cm×height 15 cm) on the bottom of which was arranged a copper coil in which was circulated hot liquid to heat to evaporation the Hexane fed into the tank. The material to be tested was placed in the box which was then closed hermetically.\nTests were performed with two different techniques, to wit, at reduced pressure and at atmospheric pressure.\nBoth by the reduced pressure technique and the atmospheric pressure technique quantities of Hexane variable from 50 ml to 800 ml were fed through a second tap having in it a silicon tube drawing from the bottom of the aluminum tank. By circulating hot liquid in the heating coil the Hexane present in liquid phase in the tank was held at a temperature of 70° C. to 75° C. for the entire period of experimentation in order to achieve complete evaporation of the Hexane. A blower was placed on the bottom of the box for homogeneous distribution of the Hexane vapors in the treatment environment.\nThe temperature in the box during all the tests and as a function of the material to be treated (biological or not), was included in the range 5° C. to 75° C. The duration of the treatment was between 1 and 72 hours for both procedures (atmospheric pressure or reduced pressure). In the reduced-pressure tests the pressure was held in a range of 0.5N/cm2 to 5N/cm2.\nAt the end of treatment time the box was reopened and the Hexane vapors allowed to free themselves outward.\n(§2) Arthropods were introduced both on nonbiological supports such as glass, printed paper, differently colored fabrics (cotton, silk, linen, skin, wool and synthetic) and on biological materials such as ham, hard wheat pasta and hard crust cheeses. […] Also treated was biological material infested by mites, larvae and adult forms of cheese fly and Galleria mellonella using the entire set of tests described above."}, "[2]": {"details": "treated products", "text": "as §2"}}}
{"smiles": "S=C=S", "note": "[carbon sulfide]", "values": [{"measurement": "insecticidal / parasiticidal effectiveness", "setting": "parasites", "result": "high insecticidal effectiveness"}, {"measurement": "toxicity for man", "setting": "man", "result": "high toxicity"}]}
{"smiles": "ClC(Cl)(Cl)Cl", "note": "[Carbon tetrachloride]", "values": [{"measurement": "insecticidal / parasiticidal effectiveness", "setting": "parasites", "result": "slight parasiticidal power"}, {"measurement": "toxicity for man", "setting": "man", "result": "less toxic than carbon sulfide"}]}
{"smiles": "CBr", "note": "[Methyl bromide]", "values": [{"measurement": "toxicity for man", "setting": "man", "result": "very poisonous"}]}
{"smiles": "CCCCCC", "note": "[Hexane, n-Hexane]", "values": [{"measurement": "abatement power on flies, mosquitoes, cockroaches, corrodentia, thysanura", "setting": "insects; contact", "result": "high abatement power"}, {"measurement": "toxic effect on insects by contact", "setting": "insects; ventilated environment", "result": "significant toxic effect"}, {"measurement": "mites dead 15 minutes after treatment", "setting": "mites; Petri capsule, treatments of 15 minutes to two hours", "result": "all the mites present"}, {"measurement": "toxic activity on arthropods by inhalation", "setting": "mites; Petri capsule, verifiable after only a few minutes treatment", "result": "strong toxic activity"}, {"measurement": "arthropods returned to life within 15 days", "setting": "mites; returned to optimal conditions 18-20 °C, 80% RH after treatment", "result": "none of them returned to life"}, {"measurement": "toxic effect on eggs (hatching)", "setting": "mites; treatment for longer periods of time", "result": "strong hatching reduction"}, {"measurement": "toxic effect on mites by contact", "setting": "mites; ventilated environment", "result": "weak, temporary toxic effect"}, {"measurement": "effect on mites and insects infesting cheese products, mattresses, cushions, sheets, carpet, drapes", "setting": "[1]; Hexane vapors, closed chamber", "result": "same result"}, {"measurement": "effect on parasites infesting ham and dressed pork products", "setting": "[1]; after 2 hours exposure to Hexane vapors, mites, larvae and adult forms of cheese fly", "result": "desired effect on nearly all parasites"}, {"measurement": "reclamation of the product (ham, dressed pork products)", "setting": "[1]; after 48 hours of treatment", "result": "complete reclamation"}, {"measurement": "outcome of closed chamber tests compared with Petri capsule", "setting": "[1]; approximately 720 g per m3 of air, up to 72 hours, surrounding temperature, atmospheric pressure", "result": "confirmed the results obtained in Petri capsule"}, {"measurement": "concentration at which parasiticidal treatment is already considerably effective", "setting": "[1]; inhalation", "result": "250 g per cubic meter of air"}, {"measurement": "accumulation of toxic substances after treatment", "setting": "[2]", "result": "no accumulation of toxic substances"}, {"measurement": "toxicity index for man following contact", "setting": "man; contact", "result": "low toxicity index"}, {"measurement": "acute toxicity index for man by inhalation", "setting": "man; inhalation", "result": "high acute toxicity index"}]}
{"smiles": "C1CO1", "note": "[Ethylene oxide]", "values": [{"measurement": "toxicity for man", "setting": "man", "result": "highly toxic"}]}
